Where a name gives a salt, the structure may show the parent alone.
Legend:
[1] = Stability: active ingredient content of coated tablets, initial and after aging at 40° C. and 75% relative humidity; format: physicochemical
[2] = Dissolution time test (pH 6.8 phosphate buffer, 900 mL, paddle 100 rpm, HPLC); format: physicochemical; conditions: for % of dissolved actives at 45 min after beginning the Dissolution time test: pH 6.8 phosphate buffer 900 mL paddle 100 rpm
Description: The dissolution time of the actives can be measured by introducing one tablet (weight 1090 mg) in 900 mL of water at 37° C. buffered to pH 6.8 with a phosphate buffer wherein the medium is mixed with a paddle at 100 rpm. The phosphate buffer is prepared by dissolving 7 g of anhydrous dibasic sodium phosphate in 5 L of water, and adjusting with phosphoric acid to a pH of 6.8. The percentage of the actives dissolved at a given time can be measured by high performance liquid chromatography (HPLC).

[3] = coated tablet of Example 1, aging 1 month at 40° C. and 75% relative humidity
[4] = coated tablet of Example 1, aging 2 months at 40° C. and 75% relative humidity
[5] = coated tablet of Example 1, initial
[6] = coated tablet of Example 1, aged 1 month at 40° C. and 75% relative humidity
[7] = coated tablet of Example 1, aged 2 months at 40° C. and 75% relative humidity

Structure (SMILES)	percentage of active ingredient measured relative to the target quantity [1, 3] [%]	percentage of active ingredient measured relative to the target quantity [1, 4] [%]	percentage of active ingredient measured relative to the target quantity [1, 5] [%]	% of dissolved actives at 45 min after beginning the Dissolution time test [2, 6] [%]	% of dissolved actives at 45 min after beginning the Dissolution time test [2, 7] [%]	% of dissolved actives at 45 min after beginning the Dissolution time test [2, 5] [%]	cumulative percentage of active released ([2]; tablet of Example 1, 5 min)	cumulative percentage of active released ([2]; tablet of Example 1, 10 min)	cumulative percentage of active released ([2]; tablet of Example 1, 15 min)	cumulative percentage of active released ([2]; tablet of Example 1, 20 min)	cumulative percentage of active released ([2]; tablet of Example 1, 30 min)	cumulative percentage of active released ([2]; tablet of Example 1, 45 min)	cumulative percentage of active released ([2]; tablet of Example 1, 60 min)
NNC(=O)c1ccncc1 [Isoniazid]	97.8	98.20	100.0	98	100	98	86	99	100	100	100	100	100
CC[C@@H](CO)NCCN[C@@H](CC)CO [Ethambutol HCl, Ethambutol Hydrochloride]	100.3	101.4	100.6	100	99	100	84	99	99	99	99	99	99
NC(=O)c1cnccn1 [Pyrazinamide]	101.2	100.5	101.3	102	102	102	90	101	102	102	102	102	102

— patent US9814711B2, “Antitubercular composition comprising rifampicin, isoniazid, ethambutol and pyrazinamide and its process of preparation” (priority 2013, dated 2017)
